Columns and labels:
[1] = molecular target: GDP-bound HRAS wild-type protein (Homo sapiens, UniProt P01112); assay: Binding to HRAS by surface plasmon resonance (SPR), Single Cycle Kinetics; details: SPR, GDP-bound HRAS wild-type vs GDP-bound KRAS wild-type
[2] = molecular target: GDP-bound NRAS wild-type protein (Homo sapiens, UniProt P01111); assay: Binding to NRAS by surface plasmon resonance (SPR), Single Cycle Kinetics; details: SPR, GDP-bound NRAS wild-type vs GDP-bound KRAS wild-type
GDP-bound NRAS wild-type protein, sequence (P01111 whole entry): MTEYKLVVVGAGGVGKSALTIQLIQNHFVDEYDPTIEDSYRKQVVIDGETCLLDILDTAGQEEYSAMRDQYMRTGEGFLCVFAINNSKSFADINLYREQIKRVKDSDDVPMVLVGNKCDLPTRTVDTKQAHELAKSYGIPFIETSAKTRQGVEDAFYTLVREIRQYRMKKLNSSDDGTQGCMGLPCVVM

GDP-bound HRAS wild-type protein, sequence (P01112 whole entry): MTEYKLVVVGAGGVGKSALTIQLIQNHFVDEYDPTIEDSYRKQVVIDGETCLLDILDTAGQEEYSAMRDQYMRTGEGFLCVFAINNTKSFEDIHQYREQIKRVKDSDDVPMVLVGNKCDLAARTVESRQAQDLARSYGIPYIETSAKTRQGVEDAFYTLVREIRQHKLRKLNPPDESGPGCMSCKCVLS

Structure (SMILES)	HRAS/KRAS (ratio of KD value with respect to HRAS to KD value with respect to KRAS) [1]	NRAS/KRAS (ratio of KD value with respect to NRAS to KD value with respect to KRAS) [2]
CCC[C@H]1C(=O)N[C@@H](C2CCCC2)C(=O)N(C)CC(=O)N(C)[C@H]2C/C=C\CCN(C2=O)[C@@H](Cc2ccc(C)cc2)C(=O)N(C)CC(=O)N[C@@H](CCc2ccc(C(F)(F)F)c(Cl)c2)C(=O)N2C[C@H](OCC)C[C@H]2C(=O)NC2(CC(C)(C)C2)C(=O)N(C)[C@@H](CC(C)C)C(=O)N(C)[C@H](C(=O)N(C)C)CC(=O)N1C [PP2190]	A (a compound having 10 or more and less than 20 is denoted as A)	A (a compound having 10 or more and less than 20 is denoted as A)
CC[C@@H]1C[C@H]2C(=O)NC3(CCCC3)C(=O)N(C)[C@@H](C3CCCC3)C(=O)N(C)[C@H](C(=O)N(C)C)CC(=O)N(C)[C@@H](CC(C)C)C(=O)N[C@@H]([C@@H](C)CC)C(=O)N(C)CC(=O)N(C)[C@H]3C/C=C\CCN(C3=O)[C@@H](Cc3ccc(C)cc3)C(=O)N(C)CC(=O)N[C@@H](CCc3cc(F)c(C(F)(F)F)c(F)c3)C(=O)N2C1 [PP2191]	B (a compound having 3 or more and less than 10 is denoted as B)	A (a compound having 10 or more and less than 20 is denoted as A)
CCC[C@H]1C(=O)N[C@@H](C2CCCC2)C(=O)N(C)CC(=O)N(C)[C@H]2C/C=C\CCN(C2=O)[C@@H](Cc2ccc(C)cc2)C(=O)N(C)CC(=O)N[C@@H](CCc2ccc(C(F)(F)F)c(Cl)c2)C(=O)N2C[C@H](OCC)C[C@H]2C(=O)NC2(CC(C)(C)C2)C(=O)N(C)[C@@H](CC(F)(F)F)C(=O)N(C)[C@H](C(=O)N(C)C)CC(=O)N1C [PP2192]	A (a compound having 10 or more and less than 20 is denoted as A)	A (a compound having 10 or more and less than 20 is denoted as A)
CCC[C@@H]1C[C@H]2C(=O)NC3(CCCC3)C(=O)N(C)[C@@H](C3CCCC3)C(=O)N(C)[C@H](C(=O)N(C)C)CC(=O)N(C)[C@@H](CC(C)C)C(=O)N[C@@H]([C@@H](C)CC)C(=O)N(C)CC(=O)N(C)[C@H]3C/C=C\CCN(C3=O)[C@@H](Cc3ccc(C)cc3)C(=O)N(C)CC(=O)N[C@@H](CCc3cc(F)c(C(F)(F)F)c(F)c3)C(=O)N2C1 [PP2193]	A (a compound having 10 or more and less than 20 is denoted as A)	A (a compound having 10 or more and less than 20 is denoted as A)
CCO[C@@H]1C[C@H]2C(=O)NC3(CCCC3)C(=O)N(C)[C@@H](C3CCCC3)C(=O)N(C)[C@H](C(=O)N(C)C)CC(=O)N(C)[C@@H](CC(C)C)C(=O)N[C@@H]([C@@H](C)CC)C(=O)N(C)CC(=O)N(C)[C@H]3C/C=C\CCN(C3=O)[C@@H](Cc3ccc(C)cc3)C(=O)N(C)CC(=O)N[C@@H](CCc3ccc(C(F)(F)F)c(Cl)c3)C(=O)N2C1 [PP2195]	A (a compound having 10 or more and less than 20 is denoted as A)	A (a compound having 10 or more and less than 20 is denoted as A)
CCC[C@H]1C(=O)N[C@@H](C2CCCC2)C(=O)N(C)CC(=O)N(C)[C@H]2C/C=C\CCN(C2=O)[C@@H](Cc2ccc(C)cc2)C(=O)N(C)CC(=O)N[C@@H](CCc2ccc(C(F)(F)F)c(Cl)c2)C(=O)N2C[C@H](OCC)C[C@H]2C(=O)NC2(CC(C)(C)C2)C(=O)N(C)[C@@H](CC(C)(C)C)C(=O)N(C)[C@H](C(=O)N(C)C)CC(=O)N1C [PP2196]	B (a compound having 3 or more and less than 10 is denoted as B)	A (a compound having 10 or more and less than 20 is denoted as A)
CCO[C@@H]1C[C@H]2C(=O)NC3(CCCC3)C(=O)N(C)[C@@H](C3CCCC3)C(=O)N(C)[C@H](C(=O)N(C)C)CC(=O)N(C)[C@@H](CC(C)C)C(=O)N[C@@H]([C@@H](C)CC)C(=O)N(C)CC(=O)N(C)[C@H]3C/C=C\CCN(C3=O)[C@@H](Cc3ccc(C)cc3)C(=O)N(C)CC(=O)N[C@@H](CCc3ccc(C(F)(F)F)c(OC)c3)C(=O)N2C1 [PP2197]	B (a compound having 3 or more and less than 10 is denoted as B)	A (a compound having 10 or more and less than 20 is denoted as A)
CCC[C@H]1C(=O)N[C@@H](C2CCCC2)C(=O)N(C)CC(=O)N(C)[C@H]2C/C=C\CCN(C2=O)[C@@H](Cc2ccc(C)cc2)C(=O)N(C)CC(=O)N[C@@H](CCc2ccc(C(F)(F)F)c(Cl)c2)C(=O)N2C[C@H](OCC)C[C@H]2C(=O)NC2(CC(C)(C)C2)C(=O)N(C)[C@@H](C2CCCC2)C(=O)N(C)[C@H](C(=O)N(C)C)CC(=O)N1C [PP2198]	A (a compound having 10 or more and less than 20 is denoted as A)	A (a compound having 10 or more and less than 20 is denoted as A)
CCC[C@H]1C(=O)N[C@@H](C(CC)CC)C(=O)N(C)CC(=O)N(C)[C@H]2C/C=C\CCN(C2=O)[C@@H](Cc2ccc(C)cc2)C(=O)N(C)CC(=O)N[C@@H](CCc2ccc(C(F)(F)F)c(Cl)c2)C(=O)N2C[C@H](OCC)C[C@H]2C(=O)NC2(CC(C)(C)C2)C(=O)N(C)[C@@H](CC(C)C)C(=O)N(C)[C@H](C(=O)N(C)C)CC(=O)N1C [PP2202]	A (a compound having 10 or more and less than 20 is denoted as A)	A (a compound having 10 or more and less than 20 is denoted as A)
CCCOC[C@H]1C(=O)N[C@@H]([C@@H](C)CC)C(=O)N(C)CC(=O)N(C)[C@H]2C/C=C\CCN(C2=O)[C@@H](Cc2ccc(C)cc2)C(=O)N(C)CC(=O)N[C@@H](CCc2cc(F)c(C(F)(F)F)c(F)c2)C(=O)N2C[C@H](CCC)C[C@H]2C(=O)NC2(CC(C)(C)C2)C(=O)N(C)[C@@H](C2CCCC2)C(=O)N(C)[C@H](C(=O)N(C)C)CC(=O)N1C [PP2203]	A (a compound having 10 or more and less than 20 is denoted as A)	A (a compound having 10 or more and less than 20 is denoted as A)
CCC[C@H]1C(=O)N[C@@H](C(CC)CC)C(=O)N(C)CC(=O)N(C)[C@H]2C/C=C\CCN(C2=O)[C@@H](Cc2ccc(C)cc2)C(=O)N(C)CC(=O)N[C@@H](CCc2ccc(C(F)(F)F)c(Cl)c2)C(=O)N2C[C@H](OCC)C[C@H]2C(=O)NC2(CC(C)(C)C2)C(=O)N(C)[C@@H](CC(C)(C)C)C(=O)N(C)[C@H](C(=O)N(C)C)CC(=O)N1C [PP2207]	A (a compound having 10 or more and less than 20 is denoted as A)	A (a compound having 10 or more and less than 20 is denoted as A)
CCC[C@@H]1C[C@H]2C(=O)NC3(CC(C)(C)C3)C(=O)N(C)[C@@H](C3CCCC3)C(=O)N(C)[C@H](C(=O)N(C)C)CC(=O)N(C)[C@@H](CC)C(=O)N[C@@H]([C@@H](C)CC)C(=O)N(C)CC(=O)N(C)[C@H]3C/C=C\CCN(C3=O)[C@@H](Cc3ccc(C)cc3)C(=O)N(C)CC(=O)N[C@@H](CCc3cc(F)c(C(F)(F)F)c(F)c3)C(=O)N2C1 [PP2208]	A (a compound having 10 or more and less than 20 is denoted as A)	A (a compound having 10 or more and less than 20 is denoted as A)

From patent US20250230193A1, “CYCLIC COMPOUND HAVING SELECTIVE KRAS INHIBITORY EFFECT ON HRAS AND NRAS” (CHUGAI SEIYAKU KABUSHIKI KAISHA, priority 2022, published 2025)
